Measured values published in ChEMBL document CHEMBL4739716, “Gpr139 receptor modulators” (2020).

Legend:
[1] = biological target: T1, Probable G-protein coupled receptor 139 (Rattus norvegicus) (UniProt P0C0W8); assay: Agonist activity at rat GPR139 expressed in CHO-K1 cells assessed as increase in calcium flux by calcium 5 dye based FLIPR assay relative to JNJ63533054; assay type: cell-based
T1 sequence (whole entry): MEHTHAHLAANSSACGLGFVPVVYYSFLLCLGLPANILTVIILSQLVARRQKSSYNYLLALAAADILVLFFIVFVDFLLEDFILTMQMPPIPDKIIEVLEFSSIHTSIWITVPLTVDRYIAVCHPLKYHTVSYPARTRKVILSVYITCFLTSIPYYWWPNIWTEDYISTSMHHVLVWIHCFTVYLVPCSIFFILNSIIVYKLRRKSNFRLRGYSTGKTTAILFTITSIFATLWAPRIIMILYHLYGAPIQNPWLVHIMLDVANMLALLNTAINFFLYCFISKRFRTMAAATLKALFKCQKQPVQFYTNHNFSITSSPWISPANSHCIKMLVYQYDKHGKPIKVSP

[2] = biological target: T2, Probable G-protein coupled receptor 139 (Rattus norvegicus, UniProt P0C0W8); assay: Agonist activity at rat GPR139 expressed in CHO-K1 cells assessed as increase in calcium flux by calcium 5 dye based FLIPR assay; assay type: cell-based
T2 sequence (P0C0W8 whole entry): T1 sequence (whole entry)

[3] = biological target: T3, Probable G-protein coupled receptor 139 (Homo sapiens, UniProt Q6DWJ6); assay: Agonist activity at human GPR139 expressed in CHO-K1 cells assessed as increase in calcium flux by calcium 5 dye based FLIPR assay; assay type: functional, cell-based
T3 sequence (Q6DWJ6 whole entry): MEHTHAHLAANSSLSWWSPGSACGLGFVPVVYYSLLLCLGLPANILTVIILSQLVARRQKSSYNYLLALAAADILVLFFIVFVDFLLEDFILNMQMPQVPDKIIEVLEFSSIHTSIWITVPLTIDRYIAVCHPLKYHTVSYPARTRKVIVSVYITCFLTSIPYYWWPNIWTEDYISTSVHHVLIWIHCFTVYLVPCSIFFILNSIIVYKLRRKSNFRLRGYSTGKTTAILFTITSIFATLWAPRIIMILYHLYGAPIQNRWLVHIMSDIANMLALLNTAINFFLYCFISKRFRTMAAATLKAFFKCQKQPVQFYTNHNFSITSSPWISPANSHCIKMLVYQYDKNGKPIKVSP

[4] = biological target: T4, Probable G-protein coupled receptor 139 (Homo sapiens) (UniProt Q6DWJ6); assay: Agonist activity at human GPR139 expressed in CHO-K1 cells assessed as increase in calcium flux by calcium 5 dye based FLIPR assay relative to JNJ63533054; assay type: functional, cell-based
T4 sequence (whole entry): T3 sequence (Q6DWJ6 whole entry)

SMILES | Emax ([1]; filed as agonist) | EC50 [2] | EC50 ([3]; cho-k1) | Emax ([4]; filed as agonist) | EC50 ([2]; cho-k1) | EC50 [3] | Emax [1] | Emax [4]
Cc1ccc([C@H](C)NC(=O)Cn2nc3c(Cl)cccn3c2=O)cc1 | 50% | < 1 nM | 1 nM | > 80% | – | – | – | –
Cc1ccc([C@H](C)NC(=O)C(C)n2nc3ccccn3c2=O)cc1 (stereo in doubt; form 1) [listing 1 of 2 here] | – | – | 1 nM | – | 1 nM | – | – | –
Cc1cc(C)n2c(=O)n(CC(=O)N[C@@H](C)c3ccc(Cl)c(F)c3)nc2n1 | 50% | – | – | > 80% | 1 nM | < 1 nM | – | –
Cc1ccnc2nn(CC(=O)N[C@@H](C)c3ccc(OC(F)(F)F)cc3)c(=O)n12 | – | ≥ 100 nM | 1 nM | 50% | – | – | < 25% | –
C[C@H](NC(=O)Cn1nc2ccc(Cl)nn2c1=O)c1ccc(Cl)c(F)c1 | > 80% | < 1 nM | – | > 80% | – | < 1 nM | – | –
Cc1nccn2c(=O)n(CC(=O)N[C@@H](C)c3ccc(Cl)c(F)c3)nc12 | > 80% | < 1 nM | – | > 80% | – | < 1 nM | – | –
C[C@H](NC(=O)Cn1nc2ccccn2c1=O)c1ccc(OC(F)F)c(F)c1 | 50% | – | 1 nM | > 80% | 1 nM | – | – | –
C[C@H](NC(=O)Cn1nc2cccc(N3CCNCC3)n2c1=O)c1ccc(OC(F)(F)F)cc1 | – | ≥ 100 nM | 10 nM | > 80% | – | – | 25% | –
C[C@H](NC(=O)Cn1nc2ccccn2c1=O)c1cncc(F)c1 | – | – | – | 50% | – | ≥ 100 nM | – | –
C[C@H](NC(=O)Cn1nc2c(OC3CNC3)nccn2c1=O)c1ccc(Cl)c(F)c1 | – | ≥ 100 nM | – | 50% | – | ≥ 100 nM | 25% | –
C[C@H](NC(=O)Cn1nc2cnccn2c1=O)c1ccc(Cl)c(F)c1 | > 80% | – | 1 nM | > 80% | 1 nM | – | – | –
C[C@H](NC(=O)Cn1nc2c(I)ccnn2c1=O)c1ccc(Cl)c(F)c1 | > 80% | – | – | > 80% | 1 nM | < 1 nM | – | –
C[C@H](NC(=O)Cn1nc2cccc(N3CCN(C)CC3)n2c1=O)c1ccc(Cl)c(F)c1 | > 80% | ≥ 100 nM | 1 nM | > 80% | – | – | – | –
Cc1cn2c(=O)n(CC(=O)N[C@@H](C)c3ccc(OC(F)(F)F)cc3)nc2cn1 | – | ≥ 100 nM | 1 nM | > 80% | – | – | 25% | –
C[C@H](NC(=O)Cn1nc2c(N3CCNCC3)nccn2c1=O)c1ccc(Cl)c(F)c1 | 50% | – | 1 nM | > 80% | 10 nM | – | – | –
C[C@H](NC(=O)Cn1nc2ncc(F)cn2c1=O)c1ccc(Cl)cc1 | – | ≥ 100 nM | 1 nM | > 80% | – | – | 25% | –
C[C@H](NC(=O)Cn1nc2ncccn2c1=O)c1ccc(Cl)cc1 | – | ≥ 100 nM | 10 nM | > 80% | – | – | 25% | –
CC1COCCN1c1cccc2nn(CC(=O)N[C@@H](C)c3ccc(Cl)c(F)c3)c(=O)n12 (stereo partly specified) | > 80% | – | – | > 80% | 1 nM | < 1 nM | – | –

SMILES | Emax ([1]; filed as agonist) | EC50 [2] | EC50 ([3]; cho-k1) | Emax ([4]; filed as agonist) | EC50 ([2]; cho-k1) | EC50 [3] | Emax [1] | Emax [4]
CC(NC(=O)Cn1nc2ccccn2c1=O)c1ccc(OC(F)F)cc1 (stereo in doubt) | – | – | 10 nM | > 80% | – | – | – | –
Cc1cc(C)n2c(=O)n(CC(=O)N[C@@H](C)c3ccc(Cl)cc3)nc2n1 | – | ≥ 100 nM | 1 nM | 50% | – | – | < 25% | –
C[C@H](NC(=O)Cn1nc2c(NC3COC3)nccn2c1=O)c1ccc(Cl)c(F)c1 | 50% | – | 1 nM | > 80% | 1 nM | – | – | –
C[C@H](NC(=O)Cn1nc2ncccn2c1=O)c1ccc(OC(F)F)c(F)c1 | – | ≥ 100 nM | 10 nM | > 80% | – | – | 25% | –
C[C@@H](NC(=O)Cn1nc2ccccn2c1=O)c1ccc(OC(F)F)cc1 | – | – | – | 50% | – | ≥ 100 nM | – | –
Cc1ccc([C@H](C)NC(=O)Cn2nc3cnccn3c2=O)cc1 | 50% | ≥ 100 nM | 10 nM | > 80% | – | – | – | –
Cc1ccc([C@H](C)NC(=O)Cn2nc3c(C4CCNC4)cccn3c2=O)cc1 (stereo partly specified) | 50% | ≥ 100 nM | – | 50% | – | ≥ 100 nM | – | –
C[C@H](NC(=O)Cn1nc2ccccn2c1=O)c1ccc(OC(F)(F)F)cc1 | – | – | 1 nM | > 80% | 1 nM | – | 25% | –
Cc1ccc([C@@H](C)NC(=O)Cn2nc3ccccn3c2=O)cc1 | – | – | – | 50% | – | ≥ 100 nM | – | –
C[C@H](NC(=O)Cn1nc2cccnn2c1=O)c1ccc(OC(F)(F)F)cc1 | 50% | – | 1 nM | > 80% | 10 nM | – | – | –
C[C@H](NC(=O)Cn1nc2ncccn2c1=O)c1ccc(OC(F)(F)F)cc1 | – | ≥ 100 nM | 10 nM | > 80% | – | – | < 25% | –
COc1ccn2c(=O)n(CC(=O)N[C@@H](C)c3ccc(C)cc3)nc2n1 | 50% | – | 1 nM | > 80% | 1 nM | – | – | –
Cc1ccc([C@H](C)NC(=O)Cn2nc3c(N)cccn3c2=O)cc1 | 50% | – | 1 nM | > 80% | 1 nM | – | – | –
Cc1ccc([C@H](C)NC(=O)Cn2nc3ccncn3c2=O)cc1 | – | – | 1 nM | > 80% | – | – | – | –
C[C@H](NC(=O)Cn1nc2cccc(N3CC(F)(F)C3)n2c1=O)c1ccc(Cl)c(F)c1 | 50% | < 1 nM | – | > 80% | – | < 1 nM | – | –
Cc1ccc([C@H](C)NC(=O)Cn2nc3ncccn3c2=O)cc1 | – | ≥ 100 nM | 10 nM | > 80% | – | – | 25% | –
Cc1ccc([C@H](C)NC(=O)Cn2nc3cc(C)nc(C)n3c2=O)cc1 | – | – | 1 nM | > 80% | – | – | – | –
Cc1ccc([C@H](C)NC(=O)C(C)n2nc3ccccn3c2=O)cc1 (stereo in doubt; form 1) [listing 2 of 2 here] | 50% | – | – | > 80% | – | – | – | –

The next lines start with the values.

Emax ([1]; filed as agonist) | EC50 [2] | EC50 ([3]; cho-k1) | Emax ([4]; filed as agonist) | EC50 ([2]; cho-k1) | EC50 [3] | Emax [1] | Emax [4] | SMILES
– | – | 1 nM | 50% | – | – | – | – | Cc1ccc([C@H](C)NC(=O)Cn2nc3c(NC(=O)OC(C)(C)C)cccn3c2=O)cc1
> 80% | < 1 nM | – | > 80% | – | < 1 nM | – | – | C[C@H](NC(=O)Cn1nc2c(N3CCCCC3)nccn2c1=O)c1ccc(Cl)c(F)c1
– | – | 1 nM | > 80% | 10 nM | – | 25% | – | C[C@H](NC(=O)Cn1nc2ccccn2c1=O)c1ccc(OC(F)F)cc1
> 80% | – | 1 nM | > 80% | 1 nM | – | – | – | C[C@H](NC(=O)Cn1nc2ncc(F)cn2c1=O)c1ccc(Cl)c(F)c1
> 80% | – | – | > 80% | 1 nM | < 1 nM | – | – | C[C@H](NC(=O)Cn1nc2cccc(N3CCOCC3)n2c1=O)c1ccc(Cl)c(F)c1
– | ≥ 100 nM | 10 nM | – | – | – | < 25% | 25% | C[C@H](NC(=O)Cn1nc2ccc(N3CCCCC3)nn2c1=O)c1ccc(OC(F)(F)F)cc1
> 80% | – | – | > 80% | 1 nM | < 1 nM | – | – | Cc1nccn2c(=O)n(CC(=O)N[C@@H](C)c3ccc(OC(F)(F)F)cc3)nc12
> 80% | < 1 nM | – | > 80% | – | < 1 nM | – | – | C[C@H](NC(=O)Cn1nc2cc(I)ccn2c1=O)c1ccc(Cl)c(F)c1
– | ≥ 100 nM | 1 nM | 50% | – | – | < 25% | – | Cc1ccn2c(=O)n(CC(=O)N[C@@H](C)c3ccc(OC(F)(F)F)cc3)nc2n1
50% | < 1 nM | 1 nM | > 80% | – | – | – | – | Cc1ccc([C@H](C)NC(=O)Cn2nc3ccc(Br)cn3c2=O)cc1
– | ≥ 100 nM | – | > 80% | – | < 1 nM | < 25% | – | Cc1cc2nn(CC(=O)N[C@@H](C)c3ccc(Cl)cc3)c(=O)n2c(C)n1
50% | – | 10 nM | 50% | 10 nM | – | – | – | C[C@H](NC(=O)Cn1nc2cccnn2c1=O)c1ccc(C2CC2)cc1
– | ≥ 100 nM | 10 nM | 50% | – | – | 25% | – | CC(C)Oc1ccc([C@H](C)NC(=O)Cn2nc3ccccn3c2=O)cc1
> 80% | – | 1 nM | > 80% | 1 nM | – | – | – | Cc1cnc2nn(CC(=O)N[C@@H](C)c3ccc(Cl)c(F)c3)c(=O)n2c1
– | – | 1 nM | > 80% | – | – | – | – | Cc1ccc([C@H](C)NC(=O)Cn2nc3cccc(Br)n3c2=O)cc1
– | – | 10 nM | > 80% | – | – | – | – | O=C(Cn1nc2ccccn2c1=O)NC(c1ccc(Cl)cc1)C1CC1 (stereo unspecified)
